{"source": "patent US20240189278A1", "about": "“NOVEL COMPOUNDS AND METHODS FOR INCREASING KLOTHO GENE EXPRESSION” (Klotho Therapeutics, Inc., priority 2017, published 2024)", "format_in_all_cases": "in vivo, mouse", "key": {"[1]": {"tested_on": "aged mice", "test": "Pulse wave velocity (arterial stiffness) in aged mice", "details": "10 mg/kg/day IP, 2 weeks treatment", "procedure": "(§1) Animal study protocols. This example was performed according to the guide lines of the National Institute of Health on the care and use of laboratory animals and approved by the institutional Animal Care and Use Committee of University of Oklahoma Health Science Center. AU mice were housed in cages at room temperature (2S±PC) and were provided with Purina laboratory chow No 5001) and tap Water and lithium. 6 adult mice (12 months) and 20 old mice (24-26 months) mice were next in this study. The old (aged) mice were randomly divided into three subgroups and each group had 6 or 7 mice. […] The third group received no treatment Blood pressure was measured before and after treatment with the active agent at 1 week and 2 week. Pulse wave velocity (PWV) was measured after 2 weeks treatment with active agent all animals were sacrificed and perfused transcardially with PBS under deep anesthesia (ketamine xylazine, 90/10 mg, IP). […]\nMeasurement of Pulse Wave Velocity: Aortic PWV was measured as described previously. […] Velocities were measured with 6-mm crystal […] Doppler probes (Indus Instruments, Webster, TX) at the transverse aortic arch and 3.5 cm distal in the abdominal aorta and collected using Doppler signal processing workstation (Indus instruments). […]"}, "[2]": {"tested_on": "Klotho gene", "test": "Methylation analyses of Klotho gene (methylation-specific PCR)", "details": "kidney of aged mice, 2 weeks treatment", "procedure": "(§2) Animal study protocols. This example was performed according to the guide lines of the National Institute of Health on the care and use of laboratory animals and approved by the institutional Animal Care and Use Committee of University of Oklahoma Health Science Center. AU mice were housed in cages at room temperature (2S±PC) and were provided with Purina laboratory chow No 5001) and tap Water and lithium. 6 adult mice (12 months) and 20 old mice (24-26 months) mice were next in this study. The old (aged) mice were randomly divided into three subgroups and each group had 6 or 7 mice. One subgroup received compound H (10 mg/kg/day1, IP, Enamine LLC, Monmouth Jct., NJ) and one group received an equal volume of DMSO (dimethyl sulfoxide, 5%) and served as a control. The third group received no treatment Blood pressure was measured before and after treatment with the active agent at 1 week and 2 week. Pulse wave velocity (PWV) was measured after 2 weeks treatment with active agent all animals were sacrificed and perfused transcardially with PBS under deep anesthesia (ketamine xylazine, 90/10 mg, IP). […]\nMethylation Analyses of Klotho Gene: The methylation status of CpG islands of mice Klotho gene was analyzed using methylation-specific PCR (MSP) and bisulfite sequencing. […] The methylation index was calculated as (band intensity of MSP with methylated primers)/(band intensity of inputted control). […]"}, "[3]": {"tested_on": "Klotho mRNA", "test": "RT-PCR of Klotho mRNA in kidney of aged mice", "procedure": "Animal study protocols. This example was performed according to the guide lines of the National Institute of Health on the care and use of laboratory animals and approved by the institutional Animal Care and Use Committee of University of Oklahoma Health Science Center. AU mice were housed in cages at room temperature (2S±PC) and were provided with Purina laboratory chow No 5001) and tap Water and lithium. 6 adult mice (12 months) and 20 old mice (24-26 months) mice were next in this study. The old (aged) mice were randomly divided into three subgroups and each group had 6 or 7 mice. One subgroup received compound H (10 mg/kg/day1, IP, Enamine LLC, Monmouth Jct., NJ) and one group received an equal volume of DMSO (dimethyl sulfoxide, 5%) and served as a control. The third group received no treatment Blood pressure was measured before and after treatment with the active agent at 1 week and 2 week. Pulse wave velocity (PWV) was measured after 2 weeks treatment with active agent all animals were sacrificed and perfused transcardially with PBS under deep anesthesia (ketamine xylazine, 90/10 mg, IP). The aortas were then quickly removed, washed and cut into pieces for subsequent analyses.\nReverse transcription-PCR (RT-PCR): Total RNA was extracted using a Direct˜zol T!vl RNA Miniprep kit (Zymo Research, Irvine CA) from kidney of adult and aged mice. […]"}, "[4]": {"tested_on": "collagen-1", "test": "Collagen in aortas of aged mice (staining and western blot)", "procedure": "as §1\nHistological and Immunohistochemical Staining: Thoracic aortas were quickly excised and placed in cold (4′T) physiological saline solution. […] Aorta rings were post-fixed in 4% paraformaldehyde, embedded in paraffin and sectioned at […] thickness, Collagen was quantified by Masson' s trichrome staining as described previously. […] Blue-stained collagen areas were quantified with ImageJ (NIH, Bethesda, USA) film 4-5 regions per section. […]"}, "[5]": {"tested_on": "MMP2", "test": "MMP2 activity by zymogram PAGE, aortas of aged mice", "details": "zymography", "procedure": "as §2\nMeasurements for MMP2 and MMP9 Activity. MMP2 and MMP9 activity were measured by Zymogram PAGE (Bio˜-Rad). Briefly Lysates from thoracic aorta were quantified using BCA assay (Pierce) and prepared under non-reducing, non-denaturing conditions. […]"}}, "data": [{"molecule": "O=C(Nc1ccccc1Cl)c1c[nH]c2ccccc12", "note": "[active agent, N-(2-chlorophenyl)-Ul-indde-3-carboxamide]", "values": [{"measurement": "Pulse wave velocity (PWV)", "setting": "[1]", "value": "decreased"}, {"measurement": "Methylation of Klotho gene", "setting": "[2]", "value": "inhibited"}, {"measurement": "Secreted Klotho mRNA expression", "setting": "[3]", "value": "increased"}, {"measurement": "Collagen production", "setting": "[4]", "value": "decreased"}, {"measurement": "MMP2 activity", "setting": "[5]", "value": "decreased"}]}]}
